Reference: patent US4929601A, “Tripeptides useful as immunostimulants as well as in the prevention of metastases” (Ellem Industria Farmaceutica, S.p.A., priority 1987, dated 1990)

How the values were obtained:
Format in all cases: cell-based
[1] = test system: PHA-stimulated human T lymphocytes; assay: DNA synthesis in PHA-stimulated human T lymphocytes in vitro (3H-thymidine); settings: for DNA synthesis, 3H-thymidine c.p.m. (mean): control 22642
Procedure: Human T lymphocytes, incubated in vitro for 72 hours in presence of 0.5% PHA and different concentrations of the tripeptides under examination, have been analyzed for DNA synthesis (cell proliferation) by means of 3H-thymidine labelling.

[2] = test system: pure human T lymphocytes, without macrophages; assay: Lymphokine production by pure human T lymphocytes without macrophages (+IL-1): TCGF activity
From the text: (§1) The supernatants have been collected, filtered (0.2 μm) and assayed for the presence of IL-2 or BCGF activity, by adding them at different concentrations to fresh T lymphocytes or to long term cultured B cells. The proliferating activity of these cells, dependent on the presence of the respective growth factor, has been evaluated through 3H-thymidine incorporation.
The lymphokine production by human T lymphocytes purified through […] on nylon wool column has been evaluated with the same methods as in the previous experiment.
In order to obviate the lack of macrophages, recombinant IL-1 β (Genzyme) has been added at the concentration of 25 Units/ml.

Human T lymphocytes = assay: Stimulation of lymphokine production in vitro: TCGF (IL-2) activity of supernatants
Procedure: Human T lymphocytes have been incubated with PHA and with or without the peptides under examination for 24 hours (in the case of IL-2) or 72 hours (in the case of BCGF).
as §1

N=C(N)NCCC[C@H](N)C(=O)NCC(=O)N[C@@H](CC(=O)O)C(=O)O [ARG--GLY--ASP, L-Arginyl-glycyl-L-aspartic acid]
PHA-induced human T lymphocyte proliferation (DNA synthesis) ([1]; 72 hours, 0.5% PHA): able to increase
DNA synthesis Δ % ([1]; peptide 0.0001 mcg/ml): -3%
DNA synthesis, 3H-thymidine c.p.m. (mean) ([1]; peptide 0.0001 mcg/ml, 72 hours, 0.5% PHA): 22002 c.p.m.
DNA synthesis Δ % ([1]; peptide 0.001 mcg/ml): +4%
DNA synthesis, 3H-thymidine c.p.m. (mean) ([1]; peptide 0.001 mcg/ml, 72 hours, 0.5% PHA): 23519 c.p.m.
DNA synthesis Δ % ([1]; peptide 0.01 mcg/ml): +6%
DNA synthesis, 3H-thymidine c.p.m. (mean) ([1]; peptide 0.01 mcg/ml, 72 hours, 0.5% PHA): 24034 c.p.m.
DNA synthesis Δ % ([1]; peptide 0.1 mcg/ml): +17%
DNA synthesis, 3H-thymidine c.p.m. (mean) ([1]; peptide 0.1 mcg/ml, 72 hours, 0.5% PHA): 25814 c.p.m.
DNA synthesis Δ % ([1]; peptide 1 mcg/ml): +11%
DNA synthesis, 3H-thymidine c.p.m. (mean) ([1]; peptide 1 mcg/ml, 72 hours, 0.5% PHA): 25163 c.p.m.
DNA synthesis Δ % ([1]; peptide 10 mcg/ml): +6%
DNA synthesis, 3H-thymidine c.p.m. (mean) ([1]; peptide 10 mcg/ml, 72 hours, 0.5% PHA): 24111 c.p.m.
TCGF activity Δ % ([2]; 1 mcg/ml, 3.125% of supernatant): +17%
TCGF ACTIVITY c.p.m. ([2]; 1 mcg/ml, 3.125% of supernatant, T + PHA + IL-1 1696): 1984 c.p.m.
TCGF activity Δ % ([2]; 1 mcg/ml, 6.25% of supernatant): +145%
TCGF ACTIVITY c.p.m. ([2]; 1 mcg/ml, 6.25% of supernatant, T + PHA + IL-1 2817): 6893 c.p.m.
TCGF activity Δ % ([2]; 1 mcg/ml, 12.5% of supernatant): +259%
TCGF ACTIVITY c.p.m. ([2]; 1 mcg/ml, 12.5% of supernatant, T + PHA + IL-1 3663): 13147 c.p.m.
TCGF activity Δ % ([2]; 1 mcg/ml, 25% of supernatant): +209%
TCGF ACTIVITY c.p.m. ([2]; 1 mcg/ml, 25% of supernatant, T + PHA + IL-1 4812): 14862 c.p.m.
TCGF activity Δ % ([2]; 1 mcg/ml, 50% of supernatant): +149%
TCGF ACTIVITY c.p.m. ([2]; 1 mcg/ml, 50% of supernatant, T + PHA + IL-1 6297): 15654 c.p.m.
TCGF activity Δ % ([2]; 10 mcg/ml, 3.125% of supernatant): +2%
TCGF ACTIVITY c.p.m. ([2]; 10 mcg/ml, 3.125% of supernatant, T + PHA + IL-1 1696): 1736 c.p.m.
TCGF activity Δ % ([2]; 10 mcg/ml, 6.25% of supernatant): +125%
TCGF ACTIVITY c.p.m. ([2]; 10 mcg/ml, 6.25% of supernatant, T + PHA + IL-1 2817): 6342 c.p.m.
TCGF activity Δ % ([2]; 10 mcg/ml, 12.5% of supernatant): +279%
TCGF ACTIVITY c.p.m. ([2]; 10 mcg/ml, 12.5% of supernatant, T + PHA + IL-1 3663): 13874 c.p.m.
TCGF activity Δ % ([2]; 10 mcg/ml, 25% of supernatant): +128%
TCGF ACTIVITY c.p.m. ([2]; 10 mcg/ml, 25% of supernatant, T + PHA + IL-1 4812): 10968 c.p.m.
TCGF activity Δ % ([2]; 10 mcg/ml, 50% of supernatant): +113%
TCGF ACTIVITY c.p.m. ([2]; 10 mcg/ml, 50% of supernatant, T + PHA + IL-1 6297): 13427 c.p.m.
TCGF activity Δ % (Human T lymphocytes; 3.125% of supernatant): +107%
TCGF ACTIVITY (mean) (Human T lymphocytes; 3.125% of supernatant, T + PHA 1564): 3245 COUNTS PER MINUTE
TCGF activity Δ % (Human T lymphocytes; 6.25% of supernatant): +224%
TCGF ACTIVITY (mean) (Human T lymphocytes; 6.25% of supernatant, T + PHA 2622): 8496 COUNTS PER MINUTE
TCGF activity Δ % (Human T lymphocytes; 12.5% of supernatant): +227%
TCGF ACTIVITY (mean) (Human T lymphocytes; 12.5% of supernatant, T + PHA 4012): 13113 COUNTS PER MINUTE
TCGF activity Δ % (Human T lymphocytes; 25% of supernatant): +105%
TCGF ACTIVITY (mean) (Human T lymphocytes; 25% of supernatant, T + PHA 7824): 16609 COUNTS PER MINUTE
TCGF activity Δ % (Human T lymphocytes; 50% of supernatant): +29%
TCGF ACTIVITY (mean) (Human T lymphocytes; 50% of supernatant, T + PHA 14086): 18167 COUNTS PER MINUTE
